Experimental data from patent US20240002416A1 (Rheinische-Friedrich-Wilhelms-Universität Bonn, priority 2020, published 2024).

Legend:
Assay type in all cases: cell-based
human MRGPRX4-83L [1] = target: T1, human MRGPRX4-83L (Homo sapiens, UniProt Q96LA9); test: β-arrestin assay (CHO β-arrestin ARMS1-ProLink 2 human MRGPRX4 83L); details: for EC50: β-arrestin recruitment, CHO cells, MRGPRX4-83L, read-out: EC50 ± SEM; for IC50: inhibition of the effect of 2.6 μM B-16; for Emax: read-out: Emax
T1 construct: host or cells: CHO β-arrestin cells
Description: (§1) For β-arrestin recruitment assays, recombinant Chinese hamster ovary (CHO) cells expressing the human MRGPRX4 were used (DiscoverX/Eurofins) which allowed to measure β-galactosidase complementation upon β-arrestin recruitment. For calcium mobilization assays, recombinant astrocytes expressing MRGPX4-83L, or LN229 glioblastoma cells natively expressing the MRGPRX4-83S, were used.
(§2) The assays were performed as previously described for other rhodopsin-like GPCRs (Müller, C.E.; 8-Benzamidochromen-4-one-2-carboxylic acids: potent and selective agonists for the orphan G protein-coupled receptor GPR35. J. Med. Chem. 2013, 56:5182-97; Müller, C.E. Molecular Recognition of Agonists and Antagonists by the Nucleotide-Activated G Protein-Coupled P2Y2 Receptor. J. Med. Chem. 2017, 60:8425-8440).

human MRGPRX4-83L [2] = target: T1, human MRGPRX4-83L; test: Calcium assay (human MRGPRX4 83L), recombinant astrocytes; details: for EC50: calcium mobilization, MRGPRX4-83L, read-out: EC50 ± SEM; for Emax: read-out: Emax
Description: as §1, §2

MRGPRX4-83S [3] = target: T2, MRGPRX4-83S (Homo sapiens, UniProt Q96LA9, L83S); test: β-arrestin assay (CHO β-arrestin human MRGPRX4-83S); parameters: host or cells: CHO β-arrestin cells; details: for EC50: β-arrestin recruitment, CHO cells, MRGPRX4-83S, read-out: EC50 ± SEM; for Emax: efficacy based on 100 nM B-16 (set as 100%), read-out: Emax
Description: as §1, §2

MRGPRX4-83S [4] = target: T2, MRGPRX4-83S; test: Calcium assay (human glioblastoma LN229 cells expressing the MRGPRX4-83S); parameters: LN229 glioblastoma cells natively expressing the MRGPRX4-83S; endogenous in cells; host or cells: LN229 human glioblastoma cells; details: for EC50: calcium mobilization, LN229 cells, MRGPRX4-83S, read-out: EC50 ± SEM; for Emax: LN-229, efficacy based on 30 μM H-1 (set as 100%), read-out: Emax
Description: as §1, §2

[5] = Table 1, means of 3-4 experiments
[6] = Table 1, efficacy based on maximal effect of 100 nM B-16 (set as 100%)
[7] = Table 1, efficacy based on maximal effect of 1 μM B-16 (set as 100%)

T2 sequence (Q96LA9 whole entry L83S): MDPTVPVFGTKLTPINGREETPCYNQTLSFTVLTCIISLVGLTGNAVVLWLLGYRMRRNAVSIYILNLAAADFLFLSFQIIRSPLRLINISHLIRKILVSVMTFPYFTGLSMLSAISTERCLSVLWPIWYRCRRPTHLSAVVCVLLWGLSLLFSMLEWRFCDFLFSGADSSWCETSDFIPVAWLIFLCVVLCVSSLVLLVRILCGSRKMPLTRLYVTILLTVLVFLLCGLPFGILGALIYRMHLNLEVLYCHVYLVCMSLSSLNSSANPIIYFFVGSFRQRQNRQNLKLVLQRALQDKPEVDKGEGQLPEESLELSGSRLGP
T1 sequence (Q96LA9 whole entry): as the sequence (Q96LA9 whole entry L83S) above, with S83L counted along it

Structure (SMILES)	IC50 (human MRGPRX4-83L [1]; Table 1) [µM]	EC50 (human MRGPRX4-83L [1]; [5]) [µM]	IC50 (human MRGPRX4-83L [2]) [µM]	EC50 (human MRGPRX4-83L [2]; Table 1) [µM]	EC50 (MRGPRX4-83S [4]; Table 2) [µM]	EC50 (MRGPRX4-83S [3]; Table 2) [nM]	Emax (human MRGPRX4-83L [2]; [7]) [%]	Emax (MRGPRX4-83S [3]; Table 2) [%]	Emax (MRGPRX4-83S [4]; Table 2) [%]	further results
C#CCn1c(=O)c2c(nc(Cc3ccc4ccccc4c3)n2CC)n(CCCCP(=O)(O)O)c1=O [B-58]	–	–	–	–	–	–	–	–	–	EC50 (human MRGPRX4-83L [1]; Table 4): > 10 µM; EC50 (human MRGPRX4-83L [2]; Table 4): > 10 µM; EC50 (MRGPRX4-83S [3]; Table 3): > 100000 nM; IC50 (MRGPRX4-83S [4]): 0.0317 ± 0.0191 µM; EC50 (MRGPRX4-83S [4]; Table 3): > 10 µM
C#CCn1c(=O)c2c(nc(-c3cccc(OC)c3)n2C)n(CCCOP(=O)(O)O)c1=O [A-1, 3-(8-(3-Methoxyphenyl)-7-methyl-2,6-dioxo-1-(prop-2-yn-1-yl)-1,2,6,7-tetrahydro-3H-purin-3-yl)propyl dihydrogen phosphate, reference compound]	> 10	> 10	> 10	> 10	> 10	–	–	–	–	–
C#CCn1c(=O)c2c(nc(CCc3c(C)cccc3C)n2CC)n(CCCCP(=O)(O)O)c1=O [B-33, (4-(8-(2,6-Dimethylphenethyl)-7-ethyl-2,6-dioxo-1-(prop-2-yn-1-yl)-1,2,6,7-tetrahydro-3H-purin-3-yl)butyl)phosphonic acid]	–	–	–	–	–	–	–	–	–	Emax (MRGPRX4-83S [3]; Table 3): 113%; EC50 (MRGPRX4-83S [3]; Table 3): 0.0487 ± 0.0201 nM; Emax (MRGPRX4-83S [4]; Table 3): 113%; EC50 (MRGPRX4-83S [4]; Table 3): 0.000543 ± 0.000186 µM
C#CCn1c(=O)c2[nH]c(CCc3ccc(OC)c(OC)c3)nc2n(CCCCP(=O)(OCC)OCC)c1=O [C-8, Diethyl (4-(8-(3,4-dimethoxyphenethyl)-2,6-dioxo-1-(prop-2-yn-1-yl)-1,2,6,7-tetrahydro-3H-purin-3-yl)butyl)phosphonate]	> 10	> 10	> 10	> 10	–	> 10000	–	–	–	–
CCCn1c(=O)c2[nH]c(-c3ccccc3)nc2n(CCCCP(=O)(O)O)c1=O [J-3, (4-(2,6-Dioxo-8-phenyl-1-propyl-1,2,6,7-tetrahydro-3H-purin-3-yl)butyl)phosphonic acid]	> 10	> 10	> 10	> 10	> 10	> 10000	–	–	–	IC50 (MRGPRX4-83S [3]): > 10 µM
C#CCn1c(=O)c2c(nc(CCc3ccccc3Br)n2C)n(CCCCP(=O)(O)OCC)c1=O [D-1, Ethyl hydrogen (4-(8-(2-bromophenethyl)-7-methyl-2,6-dioxo-1-(prop-2-yn-1-yl)-1,2,6,7-tetrahydro-3H-purin-3-yl)butyl)phosphonate]	–	0.395 ± 0.126	–	0.0555 ± 0.009	0.134 ± 0.012	114 ± 23	115	120	105	Emax (human MRGPRX4-83L [1]; [6]): 108%
C#CCn1c(=O)c2c(nc(CCc3ccccc3Cl)n2C)n(CCCCP(=O)(O)O)c1=O [B-17, (4-(8-(2-Chlorophenethyl)-7-methyl-2,6-dioxo-1-(prop-2-yn-1-yl)-1,2,6,7-tetrahydro-3H-purin-3-yl)butyl)phosphonic acid]	–	0.169 ± 0.06	–	0.00223 ± 0.00013	–	–	109	–	–	Emax (human MRGPRX4-83L [1]; [6]): 114%
C#CCn1c(=O)c2[nH]c(/C=C/c3cccc(OC)c3)nc2n(CCCCP(=O)(O)O)c1=O [J-1, (E)-(4-(8-(3-Methoxystyryl)-2,6-dioxo-1-(prop-2-yn-1-yl)-1,2,6,7-tetrahydro-3H-purin-3-yl)butyl)phosphonic acid]	–	> 10	–	> 10	0.0116 ± 0.0013	200 ± 59	–	65	–	–
C#CCn1c(=O)c2[nH]c(CCc3ccccc3Br)nc2n(CCCCS(=O)(=O)O)c1=O [E-1, 4-(8-(2-Bromophenethyl)-2,6-dioxo-1-(prop-2-yn-1-yl)-1,2,6,7-tetrahydro-3H-purin-3-yl)butane-1-sulfonic acid]	> 10	> 10	> 10	> 10	–	> 10000	–	–	–	–
C#CCn1c(=O)c2[nH]c(CCc3cccc(OC)c3)nc2n(CCCCP(=O)(OCC)OCC)c1=O [C-6, Diethyl (4-(8-(3-methoxyphenethyl)-2,6-dioxo-1-(prop-2-yn-1-yl)-1,2,6,7-tetrahydro-3H-purin-3-yl)butyl)phosphonate]	> 10	> 10	> 10	> 10	–	> 10000	–	–	–	–
C#CCn1c(=O)c2c(nc(CCc3cccc(C(F)(F)F)c3)n2C)n(CCCCP(=O)(O)O)c1=O [B-16, (4-(7-Methyl-2,6-dioxo-1-(prop-2-yn-1-yl)-8-(3-(trifluoromethyl)phenethyl)-1,2,6,7-tetrahydro-3H-purin-3-yl)butyl)phosphonic acid]	–	0.37 ± 0.05	–	0.0324 ± 0.0056	0.00317 ± 0.0006	2.28 ± 0.16	–	100	137	Emax at 0.1 µM (human MRGPRX4-83L [1]; [6]): 100%; Emax at 1 µM (human MRGPRX4-83L [2]; [7]): 100%
C#CCn1c(=O)c2[nH]c(CCc3cccc(OC)c3)nc2n(CCCCP(=O)(O)O)c1=O [B-2, (4-(8-(3-Methoxyphenethyl)-2,6-dioxo-1-(prop-2-yn-1-yl)-1,2,6,7-tetrahydro-3H-purin-3-yl)butyl)phosphonic acid]	–	5.71 ± 1.23	–	0.435 ± 0.078	0.0112 ± 0.0013	32 ± 11	102	98	99	Emax (human MRGPRX4-83L [1]; [6]): 91%
CCCn1c(=O)c2c(nc(CCc3cccc(OC)c3)n2C)n(CCCOP(=O)(O)O)c1=O [H-2, 3-(8-(3-Methoxyphenethyl)-7-methyl-2,6-dioxo-1-propyl-1,2,6,7-tetrahydro-3H-purin-3-yl)propyl dihydrogen phosphate, reference compound]	> 10	> 10	–	2.5 ± 0.73	0.801 ± 0.233	674 ± 50	113	–	88	–
C#CCn1c(=O)c2[nH]c(/C=C/c3cccc(OC)c3)nc2n(CCCOP(=O)(O)O)c1=O [H-3, (E)-3-(8-(3-Methoxystyryl)-2,6-dioxo-1-(prop-2-yn-1-yl)-1,2,6,7-tetrahydro-3H-purin-3-yl)propyl dihydrogen phosphate, reference compound]	> 10	> 10	> 10	> 10	> 10	> 10000	–	–	–	–
C#CCn1c(=O)c2c(nc(CCc3cccc(OC)c3)n2C)n(CCCOP(=O)(O)O)c1=O [H-1, 3-(8-(3-Methoxyphenethyl)-7-methyl-2,6-dioxo-1-(prop-2-yn-1-yl)-1,2,6,7-tetrahydro-3H-purin-3-yl)propyl dihydrogen phosphate, reference compound]	–	13 ± 4.1	–	0.574 ± 0.179	0.238 ± 0.011	374 ± 111	107	86	98	Emax (human MRGPRX4-83L [1]; [6]): 97%
C#CCn1c(=O)c2[nH]c(CCc3ccccc3)nc2n(CCCCP(=O)(O)O)c1=O [B-1, (4-(2,6-Dioxo-8-phenethyl-1-(prop-2-yn-1-yl)-1,2,6,7-tetrahydro-3H-purin-3-yl)butyl)phosphonic acid]	> 10	> 10	–	3.25 ± 0.61	0.134 ± 0.017	399 ± 115	110	84	92	–
CCn1c(=O)c2[nH]c(CCc3cccc(OC)c3)nc2n(CCCCP(=O)(O)O)c1=O [B-12, (4-(1-Ethyl-8-(3-methoxyphenethyl)-2,6-dioxo-1,2,6,7-tetrahydro-3H-purin-3-yl)butyl)phosphonic acid]	> 10	> 10	–	3.8 ± 0.19	0.214 ± 0.051	1190 ± 50	104	102	94	value in brackets beside IC50 >10 (human MRGPRX4-83L [1]; Table 1, bracketed value ± spread in IC50 column, not defined, inhibition of 2.6 μM B-16): −27 ± 9
C#CCn1c(=O)c2[nH]c(CCc3cccc(OC)c3)nc2n(CCCCS(=O)(=O)O)c1=O [E-3, 4-(8-(3-Methoxyphenethyl)-2,6-dioxo-1-(prop-2-yn-1-yl)-1,2,6,7-tetrahydro-3H-purin-3-yl)butane-1-sulfonic acid]	> 10	> 10	> 10	> 10	–	> 10000	–	–	–	–
CCOP(=O)(CCCCn1c(=O)n(CC)c(=O)c2[nH]c(COc3ccccc3)nc21)OCC [C-10, Diethyl (4-(1-ethyl-2,6-dioxo-8-(phenoxymethyl)-1,2,6,7-tetrahydro-3H-purin-3-yl)butyl)phosphonate]	> 10	> 10	> 10	> 10	–	> 10000	–	–	–	–
